Test results from patent US6696600B2, “L-DOPA ethyl ester salts and uses thereof” (priority 2001, dated 2004).
Read-outs that look alike come from different tables or passages of the source.

Key:
Assay type in all cases: physicochemical
[1] = pKa and delta pKa (pKa LDEE − pKa acid)
Description: Preparation and selection of salts that have different physical properties are detailed in the literature. […]. PKa of LDEE free base is known to be 7.24 [8]. […]. This fact is illustrated in Example 1 below, in which the crystallization of LDEE palmitate was attempted. After dissolution of LDEE base and palmitic acid in absolute alcohol, the solution was cooled, and instead of forming a new salt, pure palmitic acid was crystallized out, and no solid crystalline salt was formed. […]

[2] = Hygroscopicity test: weight gain of solid sample in humidity chamber at RH=80%; conditions: for hygroscopicity (in words): RH=80% screening; for weight gain in hygroscopicity test / appearance after exposure in a humidity chamber: RH=80%; for weight gain in hygroscopicity test: T=20±2° C.
Description: There are many methods of quantitative evaluation of hygroscopicity of solid products without measuring the hygroscopic point. The most widely used method is based on measuring the weight gain of a solid sample in a humidity chamber. […] This method was used for screening the hygroscopicity of several LDEE salts. It also provides a comparison of the hygroscopic properties of different solids by comparison of water absorption rates under the same conditions.

pH of water solution = assay: pH of water solution

| Compound | delta pKa pKaLDEE − pKaacid (first value) [1] | delta pKa pKaLDEE − pKaacid (second value) [1] | Color stability at RH = 80% [2] [h] | Mean water absorption rate at RH = 80% [2] [mol/kg/h] | Material appearance after 24 hrs at RH = 80% [2] | Weight gain during 24 hrs at RH = 80%,% [2] [%] | hygroscopicity (in words) [2] | weight gain in hygroscopicity test ([2]; during 24 hrs) [%] | other results |
| --- | --- | --- | --- | --- | --- | --- | --- | --- | --- |
| CCOC(=O)C(N)Cc1ccc(O)c(O)c1.O=C(O)C(O)C(O)C(=O)O (mixture of isomers) [Example 7, LDEE (LD)Tartrate] | 4.26 | 2.90 | 20 | 0.146 | Syrup | 6.3 | hygroscopic | 6.3 |  |
| CCOC(=O)[C@@H](N)Cc1ccc(O)c(O)c1.O=C(O)C(O)C(O)C(=O)O [Example 4, LDEE L(+)Tartrate] | 4.26 | 2.90 | 15 | 0.164 | Syrup | 7.1 | hygroscopic | 7.1 |  |
| CCOC(=O)[C@@H](N)Cc1ccc(O)c(O)c1.O=C(O)C(O)C(O)C(=O)O [Example 5, LDEE Hydrogen L(+)Tartrate] | 4.26 | 2.90 | 19 | 0.23 | Syrup | 10.1 | hygroscopic | 10.1 |  |
| CCOC(=O)[C@@H](N)Cc1ccc(O)c(O)c1.O=C(O)C(O)C(O)C(=O)O [Example 6, LDEE D(−)Tartrate] |  |  | 20 | 0.155 |  | 6.7 |  | 6.7 | delta pKa pKaLDEE − pKaacid (first value) ([1]; first pKa of the acid): 4.26 |
| CCOC(=O)[C@@H](N)Cc1ccc(O)c(O)c1.O=C(O)c1ccccc1 [Example 8, LDEE Benzoate] | 3.03 |  | 4.5 | 0.09 | Semi-solid melt | 4.1 | hygroscopic | 4.1 |  |
| CCOC(=O)[C@@H](N)Cc1ccc(O)c(O)c1.O=P(O)(O)O [Example 11, LDEE Phosphate] | 5.09 | 0.04 | 15 | 0.147 | Semi-solid melt | 6.4 |  | 6.4 | delta pKa pKaLDEE − pKaacid (third value) [1]: −4.6 |
| CCOC(=O)[C@@H](N)Cc1ccc(O)c(O)c1.O=C(O)CC(O)(CC(=O)O)C(=O)O [Example 13, LDEE Citrate] | 4.11 | 4.28 |  |  |  |  |  |  | delta pKa pKaLDEE − pKaacid (third value) [1]: 0.84 |
| CCOC(=O)[C@@H](N)Cc1ccc(O)c(O)c1.O=C(O)[C@@H](O)c1ccccc1 [Example 15, LDEE S(+)Mandelate] | 3.4 |  | >24 | 0.092 | Semi-solid melt | 4.0 | hygroscopic | 4.02 |  |
| CCOC(=O)[C@@H](N)Cc1ccc(O)c(O)c1.O=C(O)[C@@H](O)c1ccccc1 [Example 16, LDEE S(+)Mandelate] |  |  |  |  |  |  |  |  | delta pKa pKaLDEE − pKaacid (first value) ([1]; first pKa of the acid): 3.4 |
| CCOC(=O)C(N)Cc1ccc(O)c(O)c1.O=C(O)C(O)c1ccccc1 (stereo not drawn) [Example 17, LDEE R(−)Mandelate] |  |  | >24 | 0.125 | Semi-solid melt | 5.4 | hygroscopic | 5.4 | delta pKa pKaLDEE − pKaacid (first value) ([1]; first pKa of the acid): 3.4 |
| CCCCC(=O)O.CCOC(=O)[C@@H](N)Cc1ccc(O)c(O)c1 [Example 18, LDEE Valerate] | ˜2.4 |  |  |  |  |  |  |  |  |
| CCCCCCCC(=O)O.CCOC(=O)[C@@H](N)Cc1ccc(O)c(O)c1 [Example 19, LDEE Octanoate] | 2.35 |  | >48 | 0.005 | White flowable powder | 0.22 | non-hygroscopic | 0.22 | water absorption at RH=80% (in words) [2]: did not absorb water; appearance after exposure in a humidity chamber ([2]; about 48 hrs): white flowable powder; pH of water solution (pH of water solution): 6.0-6.5 |
| CCO.CCOC(=O)[C@@H](N)Cc1ccc(O)c(O)c1.CCOC(=O)[C@@H](N)Cc1ccc(O)c(O)c1.O=C(O)CCCCC(=O)O [Example 21, LDEE Adipate Ethanolate] | 2.81 | 1.83 | >24 | 0.121 | Semi-solid melt | 5.25 | hygroscopic | 5.25 | pH of water solution (pH of water solution): 6 |
| CCO.CCOC(=O)[C@@H](N)Cc1ccc(O)c(O)c1.CCOC(=O)[C@@H](N)Cc1ccc(O)c(O)c1.O=C(O)CCC(=O)O [Example 22, LDEE Succinate Ethanolate] | 3.08 | 1.63 | >24 | 0.067 | Semi-solid melt | 2.9 | hygroscopic |  | weight gain in hygroscopicity test ([2]; during 8 hrs): 4.3%; pH of water solution (pH of water solution): 6 |
| CCOC(=O)C(N)Cc1ccc(O)c(O)c1.O=C(O)C(O)c1ccccc1 (stereo not drawn) [R(−)Mandelate from chloroform, LDEE R(−)Mandelate] |  |  | >24 |  | Semi-solid melt |  |  |  |  |
| LDEE Ascorbate [Example 14] | 3.14 |  | 0 to 5 | 0.162 | Red semi-solid melt | 7.0 | hygroscopic | 7.04 |  |
| LDEE Citrate [Example 12] |  |  | 20 | 0.146 | Semi-solid melt | 6.3 | hygroscopic | 6.3 | delta pKa pKaLDEE − pKaacid (first value) ([1]; first pKa of the acid): 4.11; delta pKa pKaLDEE − pKaacid (second value) ([1]; second pKa of the acid): 4.28; delta pKa pKaLDEE − pKaacid (third value) ([1]; third pKa of the acid): 0.84 |
| LDEE Myristate [Example 27] | ˜2.4 |  | >48 | 0.002 | White flowable powder | 0.11 | non-hygroscopic | 0.11 | water absorption at RH=80% (in words) [2]: did not absorb water; appearance after exposure in a humidity chamber ([2]; about 24 hrs): white flowable powder |
| LDEE Oleate [Example 26] | ˜2.4 |  |  |  |  |  |  |  |  |
| LDEE Palmitate [Example 20] | 2.4 |  |  |  |  |  |  |  |  |
| Stearate | ˜2.4 |  |  |  |  |  |  |  |  |
